The values below come from patent publication EP1010435A1, “NANOCAPSULE PREPARATIONS FOR TREATING INTRAARTICULAR DISEASES” (Maruho K.K., priority 1997, dated 1999).

The experiment has as its system rabbit models in which adjuvant arthritis was induced with ovalbumin (FCA). The experiment in a line: Rabbit adjuvant arthritis model, intra-articular administration simultaneously with boosting. It is filed as in vivo, rabbits. The procedure:
Produced were rabbit models in which adjuvant arthritis was induced with ovalbumin (FCA) according to the method of E.R.Pettipher et al. (Br.J.Exp.Path., 69, 113-122, (1988)). Three weeks after sensitization, the models were boosted again with ovalbumin at knees. Simultaneously with boosting, the sample of the present invention was administered in articular cavities.
An aqueous solution of betamethasone sodium phosphate so prepared that the amount of the medicament (BSP) was the same, 3mg, and physiological saline alone were administered in articular cavities as a control and as a blank test, respectively, simultaneously with boosting.
The outside diameter of the knees of rabbits were measured with a caliper 1 day, 3 days, 7 days, 14 days, 21 days, 28 days, 35 days and 42 days after administration. Skin temperature at the knees was measured with a contact-type surface thermometer.
The outside diameter of the knees and temperature measured with time are shown as values obtained by subtracting reference values from the measured values. The reference values are those before the boosting at the knees.
Further, blood was collected from rabbits 2 weeks, 4 weeks and 6 weeks after boosting, and the production of antibodies for ovalbumin was mesured by the ELISA method (according to the same reference by E.R.Pettipher). In addition, 6 weeks after boosting, the knee joints of rabbits are opened, and the inside of the articular cavities and surrounding tissue were morphologically observed.

For `C[C@H]1C[C@H]2[C@@H]3CCC4=CC(=O)C=C[C@]4(C)[C@@]3(F)[C@@H](O)C[C@]2(C)[C@@]1(O)C(=O)COP(=O)(O)O` [betamethasone sodium phosphate], under “1 to 42 days after administration, 3 mg BSP intra-articular”, the “temperature of knees (surface skin temperature, increase)” value was “fever due to inflammation was suppressed”. The “swell of knees (outside diameter, increase over value before boosting), later course” value (after day 1 up to 5 weeks and later, 3 mg BSP intra-articular) is recorded as “almost the same swell as in the case of physiological saline”. Where the note is “one day after intra-articular administration, 3 mg BSP”, the “swell of knees (outside diameter, increase over value before boosting)” value is listed as “suppressed”.
